Data taken from paper PMC6394493 (Cancer Chemotherapy and Pharmacology, 2018).
Where two headings read alike, the source gives them in different places.

Experiments:
[1] = Phase I dose escalation (3 + 3): DLTs, MTD, recommended dose; type: in vivo
Experimental: BEZ235 was administered orally as a single agent on a continuous qd or bid dosing schedule. […] Furthermore, in the previous study, a granule formulation (BEZ235 SDS sachet) was developed because of difficulties in swallowing the large size capsules of the investigational drug. The ingredients of this new formulation, which are dispensed as granules contained within a sachet, are essentially the same as the capsule. […] Decisions regarding dose escalation were based on the safety profile, particularly DLTs, observed in the first cycle of treatment for each patient.
Safety assessments consisted of monitoring and recording of all AEs, including laboratory abnormalities and vital signs. DLTs were defined as an AE or a laboratory abnormality assessed as related to the study drug and occurring within the first 28 days of treatment (Cycle 1), as defined in Supplemental Table S1.

advanced solid tumors = assay: Tumor response per RECIST v1.0; type: in vivo, Japanese patients
Experimental: Tumor lesions were assessed by the investigators according to the RECIST guidelines, v1.0. Patients underwent screening using computed tomography (CT) or magnetic resonance imaging (MRI) scans. Screening was performed within 28 days of the first dose. The post-baseline RECIST assessments were performed every two cycles and then at the end of treatment.

S6 phosphorylation (pS6) = assay: pS6 in normal skin samples (PD biomarker); type: in vivo, Japanese patients; conditions: 400 mg bid; 3/6 patients; baseline vs end of Cycle 1
[2] = all formulations and dose levels tested (≥ 100 mg), qd; Western oncology patients; cited from earlier work
[3] = bid; Western oncology patients; cited from earlier work

Question: Which “recommended dose (RD)” value ([1]; human, in vivo, 28 days) does the source give for `Cn1c(=O)n(-c2ccc(C(C)(C)C#N)cc2)c2c3cc(-c4cnc5ccccc5c4)ccc3ncc21` [BEZ235] here?
Answer: 1000 mg

Question: And the “tolerability of 400 mg bid” value ([1]; in vivo)?
Answer: considered as a tolerable dose

Question: And the “maximum clinically tolerable dose” value ([1]; qd dosing schedule)?
Answer: 1200 mg

Question: What about the MTD ([1]; qd dosing, highest dose that causes DLT in no more than one out of six patients in Cycle 1) of the same compound?
Answer: not reached

Question: And the “complete or partial responses (CR or PR)” value (advanced solid tumors; all dose levels, qd and bid, 35 patients, RECIST v1.0)?
Answer: No complete or partial responses

Question: And the “Stable disease (SD) as the best response” value (advanced solid tumors; bid, 2 of 8 evaluable patients)?
Answer: 25.0%

Question: What about the “duration of continued treatment with SD” value (advanced solid tumors; one patient with carcinoma of unknown primary, qd) of the same compound?
Answer: 10 months

Question: What about the “Stable disease (SD) as the best response” value (advanced solid tumors; qd, 14 of 27 evaluable patients) of the same compound?
Answer: 51.9%

Question: And the “samples with reduction of pS6 in normal skin” value (S6 phosphorylation (pS6))?
Answer: 50%

Question: What about the bioavailability [2] of the same compound?
Answer: low bioavailability

Question: What about the MTD [3] of the same compound?
Answer: 300 mg
